According to paper PMC8885657, “HPV infection alters vaginal microbiome through down-regulating host mucosal innate peptides used by Lactobacilli as amino acid sources” (Nature Communications, 2022):

What was measured:
[1] = test system: defensin/elafin mRNA in immortalized human keratinocytes (HaCaT cells); assay: RT-qPCR of innate peptide expression in non-infected immortalized keratinocytes (TNFα/LPS, siRNA, inhibitors); type: cell-based; conditions: for Elafin expression / HBD2 expression / HBD3 expression / HBD4 expression: siGL3, TNF alpha +
[2] = test system: HPV E7 oncoprotein with IKK complex or β-catenin destruction complex proteins; assay: Gaussia princeps luciferase complementation assay (GPCA); type: binding, human papillomavirus / human; conditions: for GPCA signal, interaction with CK1a1: partner CK1a1; for GPCA signal, interaction with CK1 alpha 1: partner CK1 alpha 1, Fig 4M; for GPCA signal, interaction with CK1e: partner CK1e; for GPCA signal, interaction with CK1g1: partner CK1g1; for GPCA signal, interaction with CK1g2: partner CK1g2; for GPCA signal, interaction with CK1g3: partner CK1g3; for GPCA signal, interaction with CK1d: partner CK1d; for GPCA signal, interaction with DVL1: partner DVL1; for GPCA signal, interaction with DVL2: partner DVL2; for GPCA signal, interaction with DVL3: partner DVL3; for GPCA signal, interaction with GSK3B: partner GSK3B; for GPCA signal, interaction with NEMO: partner NEMO, Fig 3K; for GPCA signal, interaction with PPP2CA: partner PPP2CA; for GPCA signal, interaction with PPP2CB: partner PPP2CB
Excerpt: The coding (or mutated/truncated) sequences of HPV E7 from several alpha and beta genotypes (alpha: HPV16, 18, 33, and 39; beta: HPV8, 38, and 49) were transferred into Gateway-compatible GPCA destination vector pSPICA-N2. The open reading frames (ORFs) encoding proteins involved in IKK or β-catenin destruction complex were obtained from the human ORFeome v7.1 and 8.1 (Dana-Farber Cancer Institute, Boston, MA, USA) and were transferred into pSPICA-N1 plasmid. GPCA expression vectors (pSPICA-N1 and N2) allow the expression of two complementary fragments of the G. princeps luciferase (Gluc1 or Gluc2) linked to the N-terminal ends of tested proteins. All constructions were controlled by Sanger sequencing (GIGA-Genomics platform, University of Liege). GPCA experiments were then performed as extensively described previously[90],[91]. Briefly, HEK-293T cells were simultaneously transfected with 100 ng of pSPICA-N1-IKK or β-catenin destruction complex proteins and 100 ng of pSPICA-N2-E7 using PEI Max (Polysciences, Warrington, PA, USA). After 24 h, cells were washed, lysed and luciferase enzymatic activity was measured for 10 seconds using a Centro LB960 microplate luminometer (Berthold Technologies, Bad Wildbad, Germany). The luciferase assay system was purchased from Promega. As previously described, results were expressed as a luminescence value normalized over the sum of controls [normalized luminescence ratio (NLR)].

[3] = test system: innate peptide mRNA (SLPI, S100A7, Elafin, HBD1-4, HD-5, HD-6) in CTRL and E6E7 cells; assay: RT-qPCR of innate peptide expression in CTRL and E6E7 keratinocytes, Control / LPS / TNF alpha (Fig 2D); type: cell-based, human;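 also: mRNA level normalized to HPRT mRNA of the same sample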

## Cc1ccc(S(=O)(=O)/C=C/C#N)cc1 [BAY 11-7082, reference compound]
[1]
  TNFα/LPS-induced defensin/elafin mRNA levels: significant decrease

## HPV16 E7
[2]; partner Beta-TRCP, Fig 4L, replicate 1
  GPCA signal, interaction with Beta-TrCP: 8.518
[2]; partner Beta-TRCP, Fig 4L, replicate 2
  GPCA signal, interaction with Beta-TrCP: 8.927
[2]; partner Beta-TRCP, Fig 4L, replicate 3
  GPCA signal, interaction with Beta-TrCP: 6.394
[2]; partner Beta-TrCP, Fig 4N, replicate 1
  GPCA signal, interaction with Beta-TrCP: 8.216
[2]; partner Beta-TrCP, Fig 4N, replicate 2
  GPCA signal, interaction with Beta-TrCP: 18.6197
[2]; partner Beta-TrCP, Fig 4N, replicate 3
  GPCA signal, interaction with Beta-TrCP: 12.6285
[2]; Fig 4L, replicate 1
  GPCA signal, interaction with CK1a1: 4.195
  GPCA signal, interaction with CK1e: 2.875
  GPCA signal, interaction with CK1g1: 13.8547
  GPCA signal, interaction with CK1g2: 8.184
  GPCA signal, interaction with CK1g3: 8.632
  GPCA signal, interaction with CK1d: 4.409
  GPCA signal, interaction with DVL1: 3.768
  GPCA signal, interaction with DVL2: 1.678
  GPCA signal, interaction with DVL3: 1.994
  GPCA signal, interaction with GSK3B: 9.854
  GPCA signal, interaction with PPP2CA: 1.175
  GPCA signal, interaction with PPP2CB: 2.065
[2]; Fig 4L, replicate 2
  GPCA signal, interaction with CK1a1: 4.4237
  GPCA signal, interaction with CK1e: 2.433
  GPCA signal, interaction with CK1g1: 9.7345
  GPCA signal, interaction with CK1g2: 7.066
  GPCA signal, interaction with CK1g3: 7.582
  GPCA signal, interaction with CK1d: 3.975
  GPCA signal, interaction with DVL1: 3.207
  GPCA signal, interaction with DVL2: 1.485
  GPCA signal, interaction with DVL3: 1.934
  GPCA signal, interaction with GSK3B: 8.937
  GPCA signal, interaction with PPP2CA: 1.457
  GPCA signal, interaction with PPP2CB: 1.7166
[2]; Fig 4L, replicate 3
  GPCA signal, interaction with CK1a1: 4.5837
  GPCA signal, interaction with CK1e: 2.765
  GPCA signal, interaction with CK1g1: 4.265
  GPCA signal, interaction with CK1g2: 7.286
  GPCA signal, interaction with CK1g3: 7.146
  GPCA signal, interaction with CK1d: 4.309
  GPCA signal, interaction with DVL1: 4.087
  GPCA signal, interaction with DVL2: 1.904
  GPCA signal, interaction with DVL3: 1.325
  GPCA signal, interaction with GSK3B: 8.081
  GPCA signal, interaction with PPP2CA: 0.9985
  GPCA signal, interaction with PPP2CB: 1.3201
[2]; replicate 1
  GPCA signal, interaction with CK1 alpha 1: 4.747
  GPCA signal, interaction with NEMO: 28.7366
[2]; replicate 2
  GPCA signal, interaction with CK1 alpha 1: 7.358
  GPCA signal, interaction with NEMO: 37.4793
[2]; replicate 3
  GPCA signal, interaction with CK1 alpha 1: 7.5013
  GPCA signal, interaction with NEMO: 29.9172

## TNFα
[1]; immortalized keratinocytes, TNFα 20 ng/ml, normalized to HPRT, n = 4
  HβD2-4 expression (RT-qPCR): highly stimulated
[1]; replicate 1
  Elafin expression: 6.99
  HBD2 expression: 14.1
  HBD3 expression: 4.31
  HBD4 expression: 5.27
[1]; replicate 2
  Elafin expression: 3.11
  HBD2 expression: 7.45
  HBD3 expression: 7.5
  HBD4 expression: 1.23
[1]; replicate 3
  Elafin expression: 6.23
  HBD2 expression: 7.27
  HBD3 expression: 4.03
  HBD4 expression: 3.86
[3]; CTRL cells, replicate 1
  Elafin expression: 5.073
  HBD1 expression: 0.2367
  HBD2 expression: 3.658
  HBD3 expression: 3.171
  HBD4 expression: 2.287
  HD-5 expression: 0.3567
  HD-6 expression: 1.388
  S100A7 expression: 0.722
  SLPI expression: 0.646
[3]; CTRL cells, replicate 2
  Elafin expression: 4.065
  HBD1 expression: 1.168
  HBD2 expression: 4.597
  HBD3 expression: 4.307
  HBD4 expression: 2.172
  HD-5 expression: 2.274
  HD-6 expression: 2.604
  S100A7 expression: 0.3271
  SLPI expression: 2.0642
[3]; CTRL cells, replicate 3
  Elafin expression: 7.706
  HBD1 expression: 0.2415
  HBD2 expression: 6.118
  HBD3 expression: 2.998
  HBD4 expression: 5.397
  HD-5 expression: 2.494
  HD-6 expression: 1.116
  S100A7 expression: 1.785
  SLPI expression: 1.2988
[3]; CTRL cells, replicate 4
  Elafin expression: 14.6325
  HBD1 expression: 1.1843
  HBD2 expression: 11.5149
  HBD3 expression: 3.1783
  HBD4 expression: 3.11
  HD-5 expression: 8.229
  HD-6 expression: 1.904
  S100A7 expression: 0.4855
  SLPI expression: 0.7519
[3]; E6E7 cells, replicate 1
  Elafin expression: 0.006506
  HBD1 expression: 0.08614
  HBD2 expression: 2.123
  HBD3 expression: 0.6511
  HBD4 expression: 0.3771
  HD-5 expression: 0.1042
  HD-6 expression: 1.213
  S100A7 expression: 1.453e-5
  SLPI expression: 0.0293
[3]; E6E7 cells, replicate 2
  Elafin expression: 0.03758
  HBD1 expression: 0.1065
  HBD2 expression: 0.4899
  HBD3 expression: 2.311
  HBD4 expression: 0.789
  HD-5 expression: 1.126
  HD-6 expression: 0.08436
  S100A7 expression: 1.453e-5
  SLPI expression: 0.1199
[3]; E6E7 cells, replicate 3
  Elafin expression: 0.01347
  HBD1 expression: 0.06181
  HBD2 expression: 2.314
  HBD3 expression: 0.09282
  HBD4 expression: 1.611
  HD-5 expression: 0.8629
  HD-6 expression: 0.3418
  S100A7 expression: 8.731e-6
  SLPI expression: 0.005195
[3]; E6E7 cells, replicate 4
  Elafin expression: 0.01173
  HBD1 expression: 0.009073
  HBD2 expression: 0.5342
  HBD3 expression: 0.8751
  HBD4 expression: 0.9721
  HD-5 expression: 1.847
  HD-6 expression: 0.557
  S100A7 expression: 8.0162e-6
  SLPI expression: 0.029
